Reference: ChEMBL document CHEMBL6177971, “Iterative Optimization Yields Stapled Peptides with Superior Pharmacokinetics and Potency for Renal Fibrosis Treatment” (J Med Chem, 2025)
The source made the active and inactive calls. No cut-off for these calls is given here.

Tests used:
NIH3T3 [1] = experiment: Inhibition of TGF-beta1-induced EMT in mouse NIH3T3 cells assessed as decrease in alpha-SMA level at 10 uM incubated for 48 hrs by Western blot analysis; assay type: functional, cell-based
[2] = Stability in C57BL/6J mouse serum assessed as proteolysis resistance measured up to 72 hrs by HPLC analysis; assay type: ADME, cell-free
[3] = AUC (0 to t) in male C57BL/6J mouse at 2.8 mg/kg, iv measured for 3 to 240 mins by UHPLC-HRMS analysis; assay type: ADME, organism-based; details: in vivo, time 3-240 min
[4] = AUC (0 to infinity) in male C57BL/6J mouse at 2.8 mg/kg, iv measured for 3 to 240 mins by UHPLC-HRMS analysis; assay type: ADME, organism-based; details: in vivo, time 3-240 min
[5] = Clearance in male C57BL/6J mouse at 2.8 mg/kg, iv measured for 3 to 240 mins by UHPLC-HRMS analysis; assay type: ADME, organism-based; details: in vivo, time 3-240 min
NIH3T3 [6] = experiment: Inhibition of myofibroblast activation in TGF-beta1-induced EMT in mouse NIH3T3 cells assessed as decrease in collagen I level at 1 to 2 uM incubated for 48 hrs by Western blot analysis; assay type: functional, cell-based; details: dose 1-2 µM
NIH3T3 [7] = experiment: Inhibition of myofibroblast activation in TGF-beta1-induced EMT in mouse NIH3T3 cells assessed as decrease in MMP2 level at 1 to 2 uM incubated for 48 hrs by Western blot analysis; assay type: functional, cell-based; details: dose 1-2 µM
NIH3T3 [8] = experiment: Inhibition of myofibroblast activation in TGF-beta1-induced EMT in mouse NIH3T3 cells assessed as decrease in vimentin level at 1 to 2 uM incubated for 48 hrs by Western blot analysis; assay type: functional, cell-based; details: dose 1-2 µM
NIH3T3 [9] = experiment: Inhibition of myofibroblast activation in TGF-beta1-induced EMT in mouse NIH3T3 cells assessed as decrease in fibronectin mRNA level at 1 to 2 uM incubated for 48 hrs by qPCR analysis; assay type: functional, cell-based; details: dose 1-2 µM
NIH3T3 [10] = experiment: Inhibition of myofibroblast activation in TGF-beta1-induced EMT in mouse NIH3T3 cells assessed as decrease in vimentin mRNA level at 1 to 2 uM incubated for 48 hrs by qPCR analysis; assay type: functional, cell-based; details: dose 1-2 µM
NIH3T3 [11] = experiment: Inhibition of myofibroblast activation in TGF-beta1-induced EMT in mouse NIH3T3 cells assessed as decrease in alpha-SMA mRNA level at 1 to 2 uM incubated for 48 hrs by qPCR analysis; assay type: functional, cell-based; details: dose 1-2 µM
NIH3T3 [12] = experiment: Inhibition of myofibroblast activation in TGF-beta1-induced EMT in mouse NIH3T3 cells assessed as decrease in TGF-beta1 mRNA level at 1 to 2 uM incubated for 48 hrs by qPCR analysis; assay type: functional, cell-based; details: dose 1-2 µM
HK-2 [13] = experiment: Cytotoxicity against human HK-2 cells assessed as inhibition of cell viability at 160 uM incubated for 24 hrs by CCK8 assay; assay type: toxicity, cell-based; details: hk-2, 24 h
HK-2 [14] = experiment: Inhibition of myofibroblast activation in TGF-beta1-induced EMT in human HK-2 cells assessed as decrease in MMP-2 level at 1 to 5 uM incubated for 24 hrs by Western blot analysis; assay type: functional, cell-based; details: dose 1-5 µM
HK-2 [15] = experiment: Inhibition of myofibroblast activation in TGF-beta1-induced EMT in human HK-2 cells assessed as decrease in vimentin level at 1 to 5 uM incubated for 24 hrs by Western blot analysis; assay type: functional, cell-based; details: dose 1-5 µM
HK-2 [16] = experiment: Inhibition of myofibroblast activation in TGF-beta1-induced EMT in human HK-2 cells assessed as increase in CDH-1 mRNA level at 1 to 5 uM incubated for 24 hrs by qPCR analysis; assay type: functional, cell-based; details: dose 1-5 µM
HK-2 [17] = experiment: Inhibition of myofibroblast activation in TGF-beta1-induced EMT in human HK-2 cells assessed as decrease in VIM mRNA level at 1 to 5 uM incubated for 24 hrs by qPCR analysis; assay type: functional, cell-based; details: dose 1-5 µM
HK-2 [18] = experiment: Inhibition of myofibroblast activation in TGF-beta1-induced EMT in human HK-2 cells assessed as decrease in ACTA2 mRNA level at 1 to 5 uM incubated for 24 hrs by qPCR analysis; assay type: functional, cell-based; details: dose 1-5 µM
Mus musculus [19] = experiment: Anti-fibrotic activity in C57BL/6J mouse model of unilateral ureteral obstruction assessed as decrease in alpha-SMA level at 0.25 mg/kg, ip administered every day for 7 days by Western blot analysis; assay type: functional, organism-based; details: time 7.0 day
Mus musculus [20] = experiment: Anti-fibrotic activity in C57BL/6J mouse model of unilateral ureteral obstruction assessed as decrease in MMP2 level at 0.25 mg/kg, ip administered every day for 7 days by Western blot analysis; assay type: functional, organism-based; details: time 7.0 day
Mus musculus [21] = experiment: Anti-fibrotic activity in C57BL/6J mouse model of unilateral ureteral obstruction assessed as decrease in vimentin level at 0.25 mg/kg, ip administered every day for 7 days by Western blot analysis; assay type: functional, organism-based; details: time 7.0 day
Mus musculus [22] = experiment: Anti-fibrotic activity in C57BL/6J mouse model of unilateral ureteral obstruction assessed as decrease in fibronectin mRNA level at 0.25 mg/kg, ip administered every day for 7 days by qPCR analysis; assay type: functional, organism-based; details: time 7.0 day
Mus musculus [23] = experiment: Anti-fibrotic activity in C57BL/6J mouse model of unilateral ureteral obstruction assessed as decrease in collagen I mRNA level at 0.25 mg/kg, ip administered every day for 7 days by qPCR analysis; assay type: functional, organism-based; details: time 7.0 day
Mus musculus [24] = experiment: Anti-fibrotic activity in C57BL/6J mouse model of unilateral ureteral obstruction assessed as decrease in MMP2 mRNA level at 0.25 mg/kg, ip administered every day for 7 days by qPCR analysis; assay type: functional, organism-based; details: time 7.0 day
Mus musculus [25] = experiment: Anti-fibrotic activity in C57BL/6J mouse model of unilateral ureteral obstruction assessed as decrease in vimentin mRNA level at 0.25 mg/kg, ip administered every day for 7 days by qPCR analysis; assay type: functional, organism-based; details: time 7.0 day
Mus musculus [26] = experiment: Anti-fibrotic activity in C57BL/6J mouse model of unilateral ureteral obstruction assessed as decrease in yellowish appearance of kidney at 0.05 to 1.25 mg/kg, ip administered every day for 7 days; assay type: functional, organism-based; details: dose 0.05-1.25 mg/kg, time 7.0 day
Mus musculus [27] = experiment: Anti-fibrotic activity in C57BL/6J mouse model of unilateral ureteral obstruction assessed as decrease in kidney edema at 0.05 to 1.25 mg/kg, ip administered every day for 7 days; assay type: functional, organism-based; details: dose 0.05-1.25 mg/kg, time 7.0 day
Mus musculus [28] = experiment: Anti-fibrotic activity in C57BL/6J mouse model of unilateral ureteral obstruction assessed as decrease in kidney fibrosis at 0.05 to 1.25 mg/kg, ip administered every day for 7 days; assay type: functional, organism-based; details: dose 0.05-1.25 mg/kg, time 7.0 day
Mus musculus [29] = experiment: Anti-fibrotic activity in C57BL/6J mouse model of unilateral ureteral obstruction assessed as decrease in renal inflammation at 0.05 to 1.25 mg/kg, ip administered every day for 7 days by H and E staining based analysis; assay type: functional, organism-based; details: dose 0.05-1.25 mg/kg, time 7.0 day
Mus musculus [30] = experiment: Anti-fibrotic activity in C57BL/6J mouse model of unilateral ureteral obstruction assessed as decrease in renal fibronectin […] level administered intraperitoneally every day for 7 days by IHC analysis; assay type: functional, organism-based; details: dose 0.05-1.25 mg/kg, route ip, time 7.0 day
Mus musculus [31] = experiment: Anti-fibrotic activity in C57BL/6J mouse model of unilateral ureteral obstruction assessed as decrease in renal collagen I […] level administered intraperitoneally every day for 7 days by IHC analysis; assay type: functional, organism-based; details: dose 0.05-1.25 mg/kg, route ip, time 7.0 day
Mus musculus [32] = experiment: Anti-fibrotic activity in C57BL/6J mouse model of unilateral ureteral obstruction assessed as minimum effective dose administered intraperitoneally every day for 7 days; assay type: functional; details: route ip; time 7 day

In the case of `CCCCCCCCCCCC(=O)N[C@H](CC(=O)O)C(=O)N[C@@H](Cc1c[nH]cn1)C(=O)N[C@@H](CC(N)=O)C(=O)N[C@H]1CSCCCCCCSC[C@@H](C(N)=O)NC(=O)[C@@H](C)NC(=O)[C@H](CCC(N)=O)NC(=O)[C@@H]2CCCN2C1=O`, the inhibition (NIH3T3 [1]) is reported as “Active”, the Stability [2] is reported as “Stable” and the AUC(0-t) [3] is reported as 1890 ng·h/mL. The AUC(0-inf) [4] was 1940 ng·h/mL, the clearance [5] was 0.467 mL/min and the inhibition (NIH3T3 [6]) was “Active”. For the same molecule, the inhibition (NIH3T3 [7]) was “Active”, the inhibition (NIH3T3 [8]) was “Active” and the inhibition (NIH3T3 [9]) was “Active”. The inhibition (NIH3T3 [10]) was “Active”, the inhibition (NIH3T3 [11]) was “Active” and the inhibition (NIH3T3 [12]) was “Active”. For the same molecule, the Activity (HK-2 [13]) was “Non-toxic”, the inhibition (HK-2 [14]) was “Active” and the inhibition (HK-2 [15]) was “Active”. For the same molecule, the inhibition (HK-2 [16]) was “Active”, the inhibition (HK-2 [17]) was “Active” and the inhibition (HK-2 [18]) was “Active”. The Activity (Mus musculus [19]) was “Active”, the Activity (Mus musculus [20]) was “Active” and the Activity (Mus musculus [21]) was “Active”. For the same molecule, the Activity (Mus musculus [22]) was “Active”, the Activity (Mus musculus [23]) was “Active” and the Activity (Mus musculus [24]) was “Active”. For the same molecule, the Activity (Mus musculus [25]) was “Active”, the Activity (Mus musculus [26]) was “Active” and the Activity (Mus musculus [27]) was “Active”. The Activity (Mus musculus [28]) was “Active”, the Activity (Mus musculus [29]) was “Active” and the Activity (Mus musculus [30]) was “Dose-dependent-effect”. The Activity (Mus musculus [31]) was “Dose-dependent-effect” and the MEC (Mus musculus [32]) was 0.05 mg/kg.
